According to patent publication US20200315168A1, “Aroma-Loaded Microcapsules with Antibacterial Activity for Eco-friendly Applications” (The American University in Cairo, priority 2017, published 2020):

What was measured:
[1] = tested on: Staphylococcus aureus (ATCC 19213); assay: Agar diffusion method (inhibition zone); type: cell-based; parameters: key to Inhibition zone after 4 days of incubation (symbol): — (*): After 4 days of incubation, the bacteria grown up in the inhibition zone initially formed; settings: S. aureus; for Average diameters of inhibition zones, after 24 hours of incubation: 100 μl in 6 mm well, 37° C.; for Inhibition zone after 4 days of incubation (symbol): free oils
Method: (§1) This assay was conducted with the limonene and vanillin microcapsules suspensions after applying the washing procedure described previously. Moreover, the free active agents were also tested separately (not incorporated in microcapsules). Staphylococcus aureus (ATCC 19213) and Escherichia coli (ATCC 10536) were used as representatives for Gram positive and Gram negative bacteria, respectively. The bacterial inoculums were prepared, under aseptic conditions, by transferring 4 isolated colonies of each type to individual test tubes containing nutrient broth and then incubated at 37° C. for 24 hours. The inoculums were then diluted by sterilized Ringer solution to a concentration of 0.5 McFarland turbidity (concentration of 1.5-3.0×10^8 CFU/ml). The concentration of the bacteria dilutions, also ascertained through UV spectrophotometry at 625 nm, was 0.0938 for the S. aureus, and 0.0940 for the E. coli. The bacterial solutions were then inoculated on the surface of Mueller Hinton Agar plates, using sterilized cotton swabs, and thereafter allowed to dry. Then, a well of 6 mm diameter was made in the center of each inoculated plate; the plug was removed, and filled with 100 μl of the microcapsules suspension. The limonene oil was diluted in dimethyl sulfoxide (DMSO) (7:3 ratio), and the vanillin dissolved in corn oil (0.03 g vanillin in 1 g of oil). The plates were incubated at 37° C. for 24 h. After this time period, the diameter of the inhibition zone was measured and incubation maintained for more 4 days in order to evaluate further changes in the inhibition zone. The clear zone formed, after incubation, around each hole (inhibition halo), indicates antimicrobial activity and its diameter is a measure of the inhibitory effect. All of the tests were done in duplicates.

[2] = tested on: Escherichia coli (ATCC 10536); assay: Agar diffusion method (inhibition zone); type: cell-based; parameters: key to Inhibition zone after 4 days of incubation (symbol): — (*): After 4 days of incubation, the bacteria grown up in the inhibition zone initially formed; settings: E. coli; for Average diameters of inhibition zones, after 24 hours of incubation: 100 μl in 6 mm well, 37° C.; for Inhibition zone after 4 days of incubation (symbol): free oils
Method: as §1

| Compound | Average diameters of inhibition zones, after 24 hours of incubation [1] [cm] | Inhibition zone after 4 days of incubation (symbol) [1] | Average diameters of inhibition zones, after 24 hours of incubation [2] [cm] | Inhibition zone after 4 days of incubation (symbol) [2] |
| --- | --- | --- | --- | --- |
| C=C(C)[C@H]1CC=C(C)CC1 [Limonene in DMSO, Limonene] | 3.30 ± 0.18 | — (*) | 3.30 ± 0.31 | — (*) |
| COc1cc(C=O)ccc1O [Vanillin in corn oil, Vanillin] | 1.00 ± 0.20 | — (*) | 0.95 ± 0.32 | — (*) |
